Data as given in publication PMC10564737, “Structure-based design of a phosphotyrosine-masked covalent ligand targeting the E3 ligase SOCS2” (Nature Communications, 2023).
“And” between values parts separate entries of the source, which are not always exact repeats. Equal values may be shown once. “Also recorded” adds a separate entry of the source. Read-outs that look alike come from different tables or passages of the source.

Assays:
[1] = target: T1, HiBiT-SOCS2 fusion in HeLa cells (Homo sapiens, UniProt O14508); assay: Split-NanoLuc CETSA, permeabilised cell format; format: cell-based
T1 construct: encoding SOCS2 (32–198) in pBiT3.1-N expression vector; expressed in transfected cells; host or cells: HeLa
T1 sequence (Q15370 whole entry, one chain of several, further chain, the tested form may be a part): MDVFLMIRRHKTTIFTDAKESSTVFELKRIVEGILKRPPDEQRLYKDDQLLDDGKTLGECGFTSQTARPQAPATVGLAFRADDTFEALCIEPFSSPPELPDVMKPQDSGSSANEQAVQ
T1 sequence (Q15369 whole entry, one chain of several, further chain, the tested form may be a part): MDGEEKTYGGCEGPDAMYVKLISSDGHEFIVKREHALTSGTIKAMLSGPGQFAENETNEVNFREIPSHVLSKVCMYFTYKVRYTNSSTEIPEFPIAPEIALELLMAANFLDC
Procedure: One of the challenges with small-molecule binders displaying on-target activity with recombinant proteins, is to translate their utility to a cellular context. […] One of the advantages of CETSA is that target engagement can be monitored without the need for the development of a cell-permeable tracer molecule.
To test the cellular activity of MN551, we treated HeLa cells with 50 μM MN551 for 20 h and performed CETSA in a live-cell mode. We observed a small Tagg shift of 2 °C in live mode, which increased to 3–4 °C Tagg shift in the permeabilised format (Fig. 4d). We postulate that this observation could likely be a result of the low cellular permeability of MN551 owing to its negatively charged phosphate group.
N-terminal HiBiT-SOCS2 fusion was generated by encoding SOCS2 (32–198) in pBiT3.1-N expression vector (Promega). The transfection and target engagement assay were performed by modifying a NanoLuc target engagement protocol (Promega) with some small modifications. Briefly, HiBiT-SOCS2 fusion construct was transfected into HeLa cells using FuGENE HD (Promega) according to the manufacturer’s protocol. HiBiT-SOCS2 fusion construct was diluted into Transfection Carrier DNA (Promega) at a mass ratio of 1:100 or 1:10 for permeabilised and live-cell CETSA respectively. FuGENE HD was added at a ratio of 1:3 (μg DNA: μL FuGENE HD). 1 part (vol) of FuGENE HD complexes thus formed were combined with 20 parts (vol) of HeLa cells suspended at a density of 2 × 10^5 cells/mL, followed by incubation in a humidified, 37 °C + 5% CO2 incubator. After 20 h of incubation HeLa cells were detached and resuspended at a density of 2.5 × 10^5 cells/mL in Opti-MEM media without serum or phenol red but supplemented with protease inhibitor cocktail (Roche). […] Luminescence was recorded with GloMax Discover Microplate Reader (Promega). To generate apparent Tagg curves, the data is first converted to percent stabilized by relating the observed luminescence to the luminescence of the lowest temperature (40 °C) for that given sample. […]

SOCS2 = target: T2, SOCS2 (Homo sapiens, UniProt O14508); assay: SOCS2 pulldown with biotinylated GHR_pY595 peptide from K562 cells pre-treated with compound; format: cell-based; settings: K562 cells pre-treated with 10 µM for 6 h
T2 construct: endogenous SOCS2 from K562 lysates; endogenous in cells; host or cells: K562
T2 sequence (O14508 1-198): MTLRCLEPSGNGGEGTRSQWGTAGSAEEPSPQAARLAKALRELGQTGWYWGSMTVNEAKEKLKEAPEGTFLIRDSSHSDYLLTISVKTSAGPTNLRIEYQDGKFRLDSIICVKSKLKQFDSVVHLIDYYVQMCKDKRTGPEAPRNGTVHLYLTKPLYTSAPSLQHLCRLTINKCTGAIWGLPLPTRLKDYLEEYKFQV
Procedure: Pulldown of cellular SOCS2 was abrogated when K562 cells were pre-treated for 6 h with MN714 prior to cell lysis, further evidencing the inhibitor cell permeability and specific target engagement (Fig. 6c).
K562 cells were treated with either DMSO or 10 µM MN714 for 6 h before being lysed. For experiments with MN551, DMSO-treated lysate was used. DMSO-treated K562 lysate (1 mg/ml) was pre-cleared using control agarose beads (Pierce Control Agarose Resin, 26150) which were washed thrice using 50 mM Tris pH 7.4, 150 mM NaCl buffer. […] Unbound peptide was washed off through 3× cycles of buffer wash and spin. Beads were resuspended to a total volume of 100 µl per IP sample. 100 µl beads with immobilized peptides was added to the MN551 lysate tubes. Samples were incubated for 40 min at room temperature. Samples were spun and unbound supernatant was removed. Beads were washed 3× with 0.05% NP40, 50 mM Tris pH 7.4, 150 mM NaCl buffer before being resuspended in 35 µl 1× LDS. Samples were heated for 10 min at 95 °C after which the elute was transferred to a fresh tube. 20 µl of each sample was analyzed by Western Blot (4-12% Bis-Tris gel 180 V, 60 mins) before blotting for SOCS2 (ab109245, 1:1000 dilution) overnight at 4 °C. Uncropped blot images collected with ChemiDoc Touch imaging system (BioRad) operated by Image Lab (v2.4.0.03) and antibody validation provided in Source Data. […]

Compound | EC50 ([1]; MN551 CETSA dose response, Mean, read-out: EC50) [nM] | EC50 ([1]; MN551 CETSA dose response, single replicates, read-out: EC50, individual replicates n1-n2) | EC50 ([1]; permeabilised CETSA, 1 hr, mean ± SEM, n = 2, read-out: EC50 of Tagg shift) [nM] | pulldown of cellular SOCS2 with GHR pY595 peptide (SOCS2)
O=C(CCl)Nc1cccc(CNC(=O)[C@H](Cc2ccc(OP(=O)(O)O)cc2)NC(=O)Cc2ccc(F)cc2)c1 [MN551] | 1010 | 755 nM and 1260 nM | 1000 ± 250 | 
CC(C)(C)C(=O)OCOP(=O)(OCOC(=O)C(C)(C)C)Oc1ccc(C[C@H](NC(=O)Cc2ccc(F)cc2)C(=O)NCc2cccc(NC(=O)CCl)c2)cc1 [MN714] |  |  |  | abrogated; also recorded: effective blockade of SOCS2-GHRpY interaction
